Results as given in US20150057363A1, “TREATMENT OF METHYLMALONIC ACIDURIA, ISOVALERIC ACIDURIA, AND OTHER ORGANIC ACIDURIAS WITH TOCOTRIENOL QUINONES” (priority 2011, published 2015).

Experiments:
[1] = Pharmacokinetics of alpha-tocotrienol quinone in rats; format: in vivo, rat
Method: (§1) The particular dosage appropriate for a specific patient is determined by dose titration. […] This lack of dose-proportionality may be due to decreased absorption since there is no change in t1/2 over dose range. Alpha-tocotrienol quinone tested in rats was safe when given acutely up to 2000 mg/kg.

MMA fibroblasts = experiment: MMA cell line assay: rescue of BSO-stressed fibroblasts (cell viability, Calcein AM); format: cell-based; conditions: Homo sapiens, Fibroblast; fibroblasts from MMA patient stressed with 25 μM BSO; Calcein AM readout; read-out: ED50 (protection of cell viability)
Method: Alpha-Tocotrienol quinone, its redox-silent version (the bis-Boc protected corresponding hydroquinone), and solvent controls were tested for their ability to rescue cells from MMA fibroblasts of the patient diagnosed with MMA, when the cells were stressed by addition of L-buthionine-(S,R)-sulfoximine (BSO), as described in Jauslin et al., Hum. Mol. Genet. 11(24):3055 (2002), Jauslin et al., FASEB J. 17:1972-4 (2003), and International Patent Application WO 2004/003565. EC50 concentrations of test compound and its redox-silent version were determined and compared. The following compound, 2-((6E,10E)-3-hydroxy-3,7,11,15-tetramethylhexadeca-6,10,14-trienyl)-3,5,6-trimethyl-bis(t-butyloxycarbonyl)benzene-1,4-diol, the bis-Boc protected hydroquinone form of alpha-tocotrienol quinone, was used as the “redox-silent” alpha tocotrienol quinone, or αTTQ-RS.
DMEM (Dulbecco's Modified Eagle Medium)—No Glucose, No pyruvate—GIBCO®—Catalog number 11966-025 from Invitrogen. Fetal Calf Serum was obtained from PAA Laboratories. Basic fibroblast growth factor and epidermal growth factor were purchased from PeproTech. Penicillin-streptomycin-glutamine mix, L-buthionine (S,R)-sulfoximine, and insulin from bovine pancreas were purchased from Sigma. Calcein AM was purchased from Molecular Probes. […]

[2] = Pharmacokinetics of alpha-tocotrienol quinone in fasted dogs; conditions: dog, in vivo, po, 10 mg/kg
Method: as §1

[3] = Blood-brain barrier crossing in mice; format: in vivo
rats = conditions: rat, in vivo
Method: as §1
The starting dose can be estimated based on the United States Food and Drug Administration guidelines titled “Estimating the Maximum Safe Starting Dose in Initial Clinical Trials for Therapeutics in Adult Healthy Volunteers” (July 2005) as well as the International Conference on Harmonisation of Technical Requirements for Registration of Pharmaceuticals for Human Use (ICH) guidelines titled “Guidance on Non-clinical Safety Studies for the Conduct of Human Clinical Trials and Marketing Authorization for Pharmaceuticals” (July 2008). Per ICH guidelines, predicted exposures from the starting dose should not exceed 1/50th the NOAEL (No-Adverse-Observed-Effect-Level) in the more sensitive species on a mg/m^2 basis. Following a single oral dose of alpha-tocotrienol quinone, the NOAEL was established to be 500 mg/kg for the female rat, i.e. 3,000 mg/m2. This dosage would be equivalent to 81 mg/kg in an adult human. 1/50th of 81 mg/kg is 1.6 mg/kg, i.e. 110 mg for a 70 kg adult, or 16 mg for a 10 kg child. This dose can be administered once, twice, or three times daily.

Structure (SMILES): CC(C)=CCC/C(C)=C/CC/C(C)=C/CCC(C)(O)CCC1=C(C)C(=O)C(C)=C(C)C1=O (stereo not drawn) [alpha-tocotrienol quinone, Alpha-tocotrienol quinone]
- dose-proportionality of AUC ([1]; increase in doses of 2.4: 6: 10: 20 gives increase in AUCs of 1.5: 2.8: 4.0: 6.7): less than dose-proportionality
- bioavailability ([1]; rat, in vivo, 10 mg/kg): ~90%
- EC50 (MMA fibroblasts): 23 nM
- bioavailability [2]: ~16%
- crosses the blood-brain barrier [3]: crosses the blood-brain barrier
- safe when given acutely up to (rats): up to 2000 mg/kg
- NOAEL on mg/m2 basis (rats; po): 3,000 mg/m2
